The record followed here is paper PMC10818380, “Triphenylphosphonium Analogs of Short Peptide Related to Bactenecin 7 and Oncocin 112 as Antimicrobial Agents” (Pharmaceutics, 2024).

Common to all, as to assay type: cell-based
In assay [1] the test system is E. coli SQ171 ΔtolC (A2059G) and JW5503 (∆tolC) (KanS) ermC. Put plainly: Antibacterial activity on agar plates, macrolide-resistant strains. To be noted: Figure 3. The method, then:
(§1) Antibiotic activity was also evaluated against the following strains: E. coli JW5503 ΔtolC (KanS) ermC, modified with the plasmid pKH80 [59], providing resistance to erythromycin due to the expression of ErmC methyltransferase; E. coli SQ171 ΔtolC transformed with the pAM552 plasmid; E. coli SQ171 ΔtolC modified with the pAM552 plasmid with A2059G substitution in the 23S rRNA; E. coli JW1052 ΔmdtH; E. coli JW0912 ΔompF; and E. coli JW0368 ΔsbmA [57]. The procedure was performed as described previously in [33]. In short, Petri dishes filled with LB solid medium containing a selective antibiotic and 1.5% agar were covered with the tested strains. After that, 1 µL of 10 mM water solutions of Bac(1–10), Bac(1–10, R/Y), Bac(1–10, R/Y)-Cn-TPP, TPP-C10-Bac(1–10, R/Y), and Onc112, LEV (25 μg/mL) in water, and ERY (5 mg/mL and 50 mg/mL) in DMSO were applied onto the agar plates. After overnight incubation at 37 °C, the plates were scanned using the ChemiDoc^TM Imagining System (Bio-Rad Laboratories, Hercules, CA, USA) in three channels (Cy2, Cy3, and Cy5). The obtained images were processed in the Image Lab^TM software (Version 6.0.1, Bio-Rad).

Another assay relates to B. subtilis. Put plainly: Membrane potential with fluorescent probe diS-C3-(5). The note with it: diS-C3-(5) fluorescence. On the procedure:
The membrane potential of B. subtilis was assessed by measuring the fluorescence emitted by the potential-dependent probe, diS-C3-(5). Bacterial cells derived from the overnight culture of B. subtilis were inoculated into a fresh LB medium and allowed to grow for 24 h until reaching an optical density of 0.8 at 600 nm. Subsequently, the bacteria were subjected to a 20-fold dilution in a buffer comprising 100 mM of KCl and 10 mM of Tris, adjusted to a pH of 7.4. Fluorescence measurements were conducted at 670 nm (with excitation at 630 nm) using a Fluorat-02-Panorama fluorimeter manufactured by Lumex Instruments in St. Petersburg, Russia.

For a further assay, the system named is E. coli BW25113. Put plainly: microbe, parasite or virus in culture. To be noted: E. coli BW25113, 37 °C, 18 h. The method, then:
(§2) The MIC values for Bac(1–10), Bac(1–10, R/Y), Bac(1–10, R/Y)-Cn-TPP, TPP-C10-Bac(1–10, R/Y), and Onc112 were determined via LB broth microdilution, as recommended by CLSI in the Methods for Dilution Antimicrobial Susceptibility Tests for Bacteria that Grow Aerobically, Approved Standard, 9th ed., CLSI document M07-A9, using in-house-prepared panels. The compounds were diluted in a 96-well microtiter plate to final concentrations ranging from 0.1 to 100 µM in a 200 µL aliquot of the bacterial suspension, followed by incubation at 37 °C for 18 h. The cell concentration was estimated according to the absorbance (A600). The measurements were performed with a VICTOR X5 Multilabel Plate Reader (PerkinElmer, Waltham, MA, USA). The following bacterial strains were used: E. coli BW25113, E. coli JW0368 ΔsbmA, B. subtilis 168, and B. subtilis CFR [39].

A further assay concerns E. coli JW0368 ΔsbmA. The assay can be described thus: microbe, parasite or virus in culture. To be noted: for MIC: E. coli ∆sbmA, 37 °C, 18 h; for difference of MIC values, E. coli ΔsbmA versus wild type: ratio of MIC values of Table 1. On the procedure:
as §2

The next assay concerns B. subtilis CFR. Put plainly: microbe, parasite or virus in culture. To be noted: CFR, 18 h. The method, then:
as §2

The test system of the next assay is B. subtilis 168. The assay can be described thus: microbe, parasite or virus in culture. The method, then: as §2
A further assay deals with E. coli ΔsbmA. The assay can be described thus: Antibacterial activity on agar plates, ΔsbmA strain versus wild type. To be noted: Figure 4B. The method, then: as §1
Assay [2] concerns E. coli ΔompF, E. coli ΔmdtH. The assay can be described thus: Antibacterial activity on agar plates, ΔompF and ΔmdtH strains versus wild type. The note with it: Figure 4. On the procedure:
as §1

≈ marks a conversion by molar mass, not a printed value. Square brackets hold non-standard residues; d marks the D form. Peptide text beside a SMILES is read from it. * marks the point of attachment. X2 = c1ccc([P+](CCCCCCCCCCN*)(c2ccccc2)c2ccccc2)cc1; X1 = c1ccc([P+](CCN*)(c2ccccc2)c2ccccc2)cc1

Turning to `CC[C@H](C)[C@H](NC(=O)[C@H](CCCNC(=N)N)NC(=O)[C@@H](N)CCCNC(=N)N)C(=O)N[C@@H](CCCNC(=N)N)C(=O)N1CCC[C@H]1C(=O)N[C@@H](CCCNC(=N)N)C(=O)N1CCC[C@H]1C(=O)N1CCC[C@H]1C(=O)N[C@@H](Cc1ccc(O)cc1)C(=O)N[C@@H](CC(C)C)C(=O)NCC[P+](c1ccccc1)(c1ccccc1)c1ccccc1` [Compound 3, Bac(1–10, R/Y)-C2-TPP] (H-RRIRPRPPYL-X1; N-terminus assumed), in assay [1], the “bacterial growth inhibition in macrolide-resistant E. coli strains” value (“bacterial growth inhibition” below) is “showed bacterial-growth-inhibiting activity”. For the same compound, the “effect on membrane potential of B. subtilis” value in the assay with B. subtilis (concentration not given) is “a decrease in the membrane potential”. The MIC in the assay on E. coli BW25113 is 26.3 µM; with E. coli JW0368 ΔsbmA, >100 µM; against B. subtilis CFR it was 50 µM; with B. subtilis 168 (B. subtilis 168, 37 °C, 18 h), 12.5 µM. Moreover, in the assay with E. coli JW0368 ΔsbmA, the “difference of MIC values, E. coli ΔsbmA versus wild type” value is recorded as “four”. Also, the “antibacterial activity on E. coli ΔsbmA compared with wild-type strain” value in the assay with E. coli ΔsbmA is reported as “a decrease in the antibacterial activity”.

Consider `CC[C@H](C)[C@H](NC(=O)[C@H](CCCNC(=N)N)NC(=O)[C@@H](N)CCCNC(=N)N)C(=O)N[C@@H](CCCNC(=N)N)C(=O)N1CCC[C@H]1C(=O)N[C@@H](CCCNC(=N)N)C(=O)N1CCC[C@H]1C(=O)N1CCC[C@H]1C(=O)N[C@@H](Cc1ccc(O)cc1)C(=O)N[C@@H](CC(C)C)C(=O)NCCCCCCCCCC[P+](c1ccccc1)(c1ccccc1)c1ccccc1` [Compound 4, Bac(1–10, R/Y)-C10-TPP] (H-RRIRPRPPYL-X2; N-terminus assumed), for which the “bacterial growth inhibition” value in assay [1] is listed as “showed bacterial-growth-inhibiting activity”. The “effect on membrane potential of B. subtilis” value in the assay with B. subtilis (1 µM) is listed as “rapid decrease in the membrane potential”. For the same compound, the MIC in the assay with E. coli BW25113 was determined as 100 µM; in the assay with E. coli JW0368 ΔsbmA, 100 µM; with B. subtilis CFR it was 0.8 µM; in the assay on B. subtilis 168 (B. subtilis 168, 37 °C, 18 h), 1.6 µM. In the assay with E. coli JW0368 ΔsbmA (MIC values of Table 1), the “comparison of MIC values, E. coli ΔsbmA versus wild type” value was “the same”.

As to `CC[C@H](C)[C@H](NC(=O)[C@@H](CCCNC(=N)N)NC(=O)[C@H](CCCNC(=N)N)NC(=O)[C@@H]1CCCN1C(=O)[C@@H]1CCCN1C(=O)[C@H](CCCNC(=N)N)NC(=O)[C@@H]1CCCN1C(=O)[C@H](CCCNC(=N)N)NC(=O)[C@@H]1CCCN1C(=O)[C@H](CC(C)C)NC(=O)[C@H](Cc1ccc(O)cc1)NC(=O)[C@@H]1CCCN1C(=O)[C@@H]1CCCN1C(=O)[C@H](CCCCN)NC(=O)[C@H](CC(=O)O)NC(=O)[C@@H](N)C(C)C)C(=O)N[C@@H](Cc1ccc(O)cc1)C(=O)N[C@@H](CC(N)=O)C(=O)N[C@H](CCCNC(=N)N)C(N)=O` [Onc112, reference compound] (H-VDKPPYLPRPRPPR[dR]IYN[dR]-NH2; N-terminus assumed), the “bacterial growth inhibition” value in assay [1] is “showed activity against resistant E. coli bacteria comparable to that demonstrated in the wild type”. Moreover, the “growth inhibition of E. coli ΔompF and ΔmdtH compared with wild-type strain” value in assay [2] was “no significant difference in the growth inhibition”. In addition, the MIC against E. coli BW25113 was 11.6 µM (≈ 27.7 µg/mL); against E. coli JW0368 ΔsbmA it was >90 µM; against B. subtilis CFR it was >50 µM; in the assay on B. subtilis 168 (168, 18 h), >50 µM. Also, the “difference of MIC values, E. coli ΔsbmA versus wild type” value in the assay on E. coli JW0368 ΔsbmA is on record as “approximately eight”. The “antibacterial activity on E. coli ΔsbmA compared with wild-type strain” value in the assay on E. coli ΔsbmA is on record as “a decrease in the antibacterial activity”.
